Results as given in the NIST ThermoML archive (doi:10.1016/j.fluid.2004.11.019).

Conditions: Liquid

CCO [ethanol]
mass density [kg/m3]
Conditions | 100 kPa | 10000 kPa | 20000 kPa | 30000 kPa | 40000 kPa
298.15 K | 785.7 | 794 | 801.9 | 808.9 | 815.7
323.15 K | 763.7 | 773.4 | 782.3 | 790.3 | 797.7
348.15 K | 739.4 | 751.2 | 761.2 | 770.3 | 778.6
